This note sets out measurements from patent US20030198662A1, “Transdermal administration of N-(2,5-disubstituted phenyl)-N'-(3-substituted phenyl)-N'-methyl guanidines” (priority 1999, published 2003).

The series can be described thus: Electrotransport drug flux in automated permeation cells (zero-current passive phase, then electrotransport phase). The class given is in vitro ADME. Particulars: aqueous donor solution about 15 mg/mL drug HCl salt, receptor Dulbecco's phosphate buffered saline pH 7.4. Here is the method:
Automated permeation cells used for passive permeation studies were also used for the assessment of electrotransport drug flux. The donor compartment contained the silver anode while the receptor compartment contained the silver chloride cathode. The electrodes were connected to a Maccor power source. An aqueous donor solution containing about 15 mg/mL of the drug HCl salt was utilized. The receptor solution was Dulbecco's phosphate buffered saline ([…]) pH 7.4. The first 16 hours served as a zero current passive phase after which the power source was turned on. The electrotransport phase during which a current of 0.2 mA was supplied (to result in a current density of 0.1 mA/cm^2) lasted 24 hours. Receptor solution was automatically collected every 4 hours during the passive phase and every hour during the electrotransport phase, and analyzed for drug by HPLC. Flux, as μg/cm^2h, was calculated, as was the average steady-state flux, which included data points where delivery had reached a nearly constant value.

Regarding `CSc1cccc(N(C)C(=N)Nc2cc(SC)ccc2Cl)c1` [CNS 5161, N-(2-chloro-5-(methylthio)phenyl)-N′-(3-(methylthio)phenyl)-N′-methyl guanidine], the “Average steady-state flux during electrotransport” value (current 0.2 mA, current density 0.1 mA/cm^2, 24 hours) worked out at 53±2.5 μg/cm^2h. Besides, where the note is “initial 16 hours, zero current”, the “Flux during zero-current passive phase” value is given as “about 0.02 μg/cm^2h”.
